# Measured values from PubChem BioAssay AID248 (DTP/NCI, 2004).
# Where “and” joins values, the source holds several entries; their conditions need not be identical. Equal entries are not always repeated. Inconclusive results and toxic doses are left out.
# Test system: L1210 leukemia ip in BDF1 mice, survival T/C
# Assay: NCI In Vivo Anticancer Drug Screen. Data for tumor model L1210 Leukemia (intraperitoneal) in B6D2F1 (BDF1) mice
# Conditions: endpoint: mean survival time, higher = longer survival
# In short: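 Transplanted-tumor mice were given test agent; controls received vehicle only. Survival readings from the two groups were divided (treated over control).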
# [1] = dose: 100.0 mg/kg/injection, schedule: Q04DX003 (ip), vehicle: saline
# [2] = dose: 200.0 mg/kg/injection, schedule: Q04DX003 (ip), vehicle: saline
# [3] = dose: 400.0 mg/kg/injection, schedule: Q04DX003 (ip), vehicle: saline
# [4] = dose: 100.0 mg/kg/injection, schedule: Q04DX003 (ip), vehicle: Klucel (hydroxypropylcellulose) (HPC)
# [5] = dose: 200.0 mg/kg/injection, schedule: Q04DX003 (ip), vehicle: Klucel (hydroxypropylcellulose) (HPC)
# [6] = dose: 400.0 mg/kg/injection, schedule: Q04DX003 (ip), vehicle: Klucel (hydroxypropylcellulose) (HPC)
# [7] = dose: 100.0 mg/kg/injection, schedule: Q01DX001 (ip), vehicle: saline
# [8] = dose: 200.0 mg/kg/injection, schedule: Q01DX001 (ip), vehicle: saline
# [9] = dose: 25.0 mg/kg/injection, schedule: Q01DX009 (ip), vehicle: saline with Tween-80
# [10] = dose: 50.0 mg/kg/injection, schedule: Q01DX009 (ip), vehicle: saline with Tween-80
# [11] = dose: 100.0 mg/kg/injection, schedule: Q01DX009 (ip), vehicle: saline with Tween-80
# [12] = dose: 100.0 mg/kg/injection, schedule: Q01DX001 (ip), vehicle: Klucel (hydroxypropylcellulose) (HPC)
# [13] = dose: 100.0 mg/kg/injection, schedule: Q04DX003 (ip), vehicle: saline with Tween-80
# [14] = dose: 200.0 mg/kg/injection, schedule: Q01DX001 (ip), vehicle: Klucel (hydroxypropylcellulose) (HPC)
# [15] = dose: 200.0 mg/kg/injection, schedule: Q01DX009 (ip), vehicle: saline with Tween-80
# [16] = dose: 200.0 mg/kg/injection, schedule: Q04DX003 (ip), vehicle: saline with Tween-80
# [17] = dose: 400.0 mg/kg/injection, schedule: Q01DX001 (ip), vehicle: saline
# [18] = dose: 100.0 mg/kg/injection, schedule: Q01DX009 (ip), vehicle: Klucel (hydroxypropylcellulose) (HPC)
# [19] = dose: 200.0 mg/kg/injection, schedule: Q01DX009 (ip), vehicle: Klucel (hydroxypropylcellulose) (HPC)
# [20] = dose: 6.25 mg/kg/injection, schedule: Q01DX009 (ip), vehicle: Klucel (hydroxypropylcellulose) (HPC)
smiles,measurement,setting,value
CN(C)P1(=O)N(c2ccc(Cl)cc2)P(=O)(N(C)C)N1c1ccc(Cl)cc1 (stereo not drawn),T/C,"dose: 100.0 mg/kg/injection, schedule: Q04DX002 (ip), vehicle: saline",96 % of control
same,T/C,"dose: 200.0 mg/kg/injection, schedule: Q04DX002 (ip), vehicle: saline",100 % of control
same,T/C,"dose: 400.0 mg/kg/injection, schedule: Q04DX002 (ip), vehicle: saline",93 % of control
Cc1ccc2cc3c4ccccc4ccc3[n+](C)c2c1,T/C,"dose: 75.0 mg/kg/injection, schedule: Q01DX001 (ip), vehicle: carboxymethylcellulose (CMC)",100 % of control
same,T/C,"dose: 150.0 mg/kg/injection, schedule: Q01DX001 (ip), vehicle: carboxymethylcellulose (CMC)",100 % of control
same,T/C,"dose: 300.0 mg/kg/injection, schedule: Q01DX001 (ip), vehicle: carboxymethylcellulose (CMC)",102 % of control
Nc1nc2c(ncn2CCC(N)C(=O)O)c(=O)[nH]1 (stereo not drawn),T/C,[1],104 % of control
same,T/C,[2],98 % of control
same,T/C,[3],107 % of control
CC(C)=C(B1OC(C)(C)C(C)(C)O1)B1OC(C)(C)C(C)(C)O1,T/C,[4],93 % of control
same,T/C,[5],95 % of control
same,T/C,[6],97 % of control
COc1ccc2nc(N=Nc3c(N)nc(N)nc3N)sc2c1,T/C,[7],96 % of control
same,T/C,[8],105 % of control
Cc1ccc(S(=O)(=O)/C=C(\I)c2ccc([N+](=O)[O-])cc2)cc1,T/C,[9],96 % of control
same,T/C,[10],91 % of control
same,T/C,[7],97 % of control
same,T/C,[11],98 % of control
same,T/C,[8],95 % of control
Cc1nc(N)c(N)nc1C,T/C,"dose: 12.5 mg/kg/injection, schedule: Q01DX009 (ip), vehicle: saline with Tween-80",112 % of control
same,T/C,[9],101 % of control
same,T/C,"dose: 25.0 mg/kg/injection, schedule: Q04DX003 (ip), vehicle: saline with Tween-80",106 % of control
same,T/C,[10],101 % of control
same,T/C,"dose: 50.0 mg/kg/injection, schedule: Q04DX003 (ip), vehicle: saline with Tween-80",101 % of control
COC(OC)c1[nH]c(=S)[nH]c(=O)c1Cc1cccc2ccccc12,T/C,[12],105 % of control
same,T/C,[11],96 % of control
same,T/C,[13],100 % of control
same,T/C,[14],105 % of control
same,T/C,[15],89 % of control
same,T/C,[16],100 % of control
same,T/C,"dose: 400.0 mg/kg/injection, schedule: Q01DX001 (ip), vehicle: Klucel (hydroxypropylcellulose) (HPC)",96 % of control
same,T/C,"dose: 400.0 mg/kg/injection, schedule: Q01DX009 (ip), vehicle: saline with Tween-80",93 % of control
same,T/C,"dose: 400.0 mg/kg/injection, schedule: Q04DX003 (ip), vehicle: saline with Tween-80",102 % of control
CCN(CC)C(=Nc1ccc(NC(=O)c2ccc(C(=O)Nc3ccc(N=C(c4ccccc4)N(CC)CC)cc3)cc2)cc1)c1ccccc1,T/C,"dose: 15.0 mg/kg/injection, schedule: Q01DX Z (ip), vehicle: carboxymethylcellulose (CMC)",92 % of control
same,T/C,"dose: 30.0 mg/kg/injection, schedule: Q01DX Z (ip), vehicle: carboxymethylcellulose (CMC)",93 % of control
same,T/C,"dose: 60.0 mg/kg/injection, schedule: Q01DX Z (ip), vehicle: carboxymethylcellulose (CMC)",98 % of control
same,T/C,"dose: 120.0 mg/kg/injection, schedule: Q01DX Z (ip), vehicle: carboxymethylcellulose (CMC)",114 % of control
CCP(CC)c1cccc(OC(=O)NC)c1,T/C,"dose: 5.0 mg/kg/injection, schedule: Q01DX001 (ip), vehicle: saline",110 % of control
same,T/C,"dose: 10.0 mg/kg/injection, schedule: Q01DX001 (ip), vehicle: saline",104 % of control
same,T/C,"dose: 20.0 mg/kg/injection, schedule: Q01DX001 (ip), vehicle: saline",107 % of control
CCOC(=O)Cc1cc(Cl)c2cc(C)ccc2n1,T/C,[7],92 % of control
same,T/C,[8],100 % of control
same,T/C,[17],103 % of control and 89 % of control
CC1(C)OC2C(C(=O)O)OC(n3cnc4c(N)ncnc43)C2O1 (stereo not drawn),T/C,"dose: 100.0 mg/kg/injection, schedule: Q01DX005 (ip), vehicle: saline",102 % of control
same,T/C,"dose: 200.0 mg/kg/injection, schedule: Q01DX005 (ip), vehicle: saline",104 % of control
S=c1[nH]c(Cc2ccccc2)cs1,T/C,"dose: 100.0 mg/kg/injection, schedule: Q01DX001 (sc), vehicle: carboxymethylcellulose (CMC)",103 % of control
same,T/C,"dose: 200.0 mg/kg/injection, schedule: Q01DX001 (sc), vehicle: carboxymethylcellulose (CMC)",105 % of control
same,T/C,"dose: 400.0 mg/kg/injection, schedule: Q01DX001 (sc), vehicle: carboxymethylcellulose (CMC)",103 % of control
CN(C)c1ncnc2c1ncn2C1CCC(CO)C1 (stereo not drawn),T/C,"dose: 100.0 mg/kg/injection, schedule: Q01DX001 (ip), vehicle: carboxymethylcellulose (CMC)",105 % of control
same,T/C,"dose: 200.0 mg/kg/injection, schedule: Q01DX001 (ip), vehicle: carboxymethylcellulose (CMC)",96 % of control
CC(=O)OC1CCC2(C)C(=CC=C3C2=CCC2(C)C(=O)CCC32)C1 (stereo not drawn),T/C,[10],87 % of control
same,T/C,[11],90 % of control
same,T/C,[15],90 % of control
c1ccc(-c2nc3ccccc3o2)cc1,T/C,[18],92 % of control
same,T/C,[4],92 % of control
same,T/C,[19],97 % of control
same,T/C,[5],95 % of control
same,T/C,"dose: 400.0 mg/kg/injection, schedule: Q01DX009 (ip), vehicle: Klucel (hydroxypropylcellulose) (HPC)",92 % of control
same,T/C,[6],103 % of control
COC(=O)c1ccc(C(=O)OC)[n+]([O-])c1,T/C,"dose: 100.0 mg/kg/injection, schedule: Q01DX009 (ip), vehicle: saline",102 % of control
same,T/C,[1],103 % of control
same,T/C,"dose: 200.0 mg/kg/injection, schedule: Q01DX009 (ip), vehicle: saline",106 % of control
same,T/C,[2],108 % of control
same,T/C,"dose: 266.0 mg/kg/injection, schedule: Q04DX003 (ip), vehicle: saline",93 % of control
same,T/C,"dose: 400.0 mg/kg/injection, schedule: Q01DX009 (ip), vehicle: saline",106 % of control
same,T/C,[3],101 % of control
same,T/C,"dose: 600.0 mg/kg/injection, schedule: Q04DX003 (ip), vehicle: saline",90 % of control
CNC/C(C)=C/Br,T/C,"dose: 100.0 mg/kg/injection, schedule: Q04DX003 (ip), vehicle: acetone",101 % of control
same,T/C,[13],103 % of control
same,T/C,"dose: 200.0 mg/kg/injection, schedule: Q04DX003 (ip), vehicle: acetone",92 % of control
same,T/C,[16],97 % of control
Cc1ccc(NC(=O)Nc2ccccc2C)c(C)c1,T/C,[18],93 % of control
same,T/C,[4],103 % of control
same,T/C,[19],90 % of control
same,T/C,[5],91 % of control
same,T/C,[6],96 % of control
C=CCNc1nc(C)ncc1C(=O)OCC,T/C,"dose: 75.0 mg/kg/injection, schedule: Q04DX003 (ip), vehicle: saline with Tween-80",94 % of control
same,T/C,"dose: 150.0 mg/kg/injection, schedule: Q04DX003 (ip), vehicle: saline with Tween-80",92 % of control
same,T/C,"dose: 300.0 mg/kg/injection, schedule: Q04DX003 (ip), vehicle: saline with Tween-80",92 % of control
COC(=O)c1cccc2c1-c1ccccc1C(Br)C2Br (stereo not drawn),T/C,[7],111 % of control
same,T/C,[1],96 % of control
same,T/C,[8],95 % of control
same,T/C,[2],92 % of control
same,T/C,[17],97 % of control
same,T/C,[3],94 % of control
O=C1OCCN1S(=O)(=O)c1ccc([N+](=O)[O-])cc1,T/C,"dose: 3.12 mg/kg/injection, schedule: Q01DX009 (ip), vehicle: Klucel (hydroxypropylcellulose) (HPC)",94 % of control
same,T/C,[20],93 % of control
same,T/C,"dose: 12.5 mg/kg/injection, schedule: Q01DX009 (ip), vehicle: Klucel (hydroxypropylcellulose) (HPC)",94 % of control
same,T/C,[12],86 % of control
same,T/C,[4],97 % of control
same,T/C,[14],91 % of control
same,T/C,[5],92 % of control
same,T/C,[6],88 % of control
Nc1nc(=S)c2[nH]c(N=Nc3ccc(S(=O)(=O)Nc4ccccn4)cc3)nc2[nH]1,T/C,[20],170 % of control
same,T/C,"dose: 25.0 mg/kg/injection, schedule: Q01DX009 (ip), vehicle: Klucel (hydroxypropylcellulose) (HPC)",112 % of control
same,T/C,"dose: 50.0 mg/kg/injection, schedule: Q01DX009 (ip), vehicle: Klucel (hydroxypropylcellulose) (HPC)",100 % of control and 117 % of control and 124 % of control
same,T/C,"dose: 50.0 mg/kg/injection, schedule: Q04DX003 (ip), vehicle: Klucel (hydroxypropylcellulose) (HPC)",106 % of control
same,T/C,[7],98 % of control
same,T/C,[18],101 % of control
same,T/C,[4],117 % of control
same,T/C,[8],104 % of control
same,T/C,[19],100 % of control
same,T/C,[17],104 % of control
